Reference: ChEMBL document CHEMBL1201862, “PubChem BioAssay data set” (2004)
One block for each molecule: values may come before it. The source made the active and inactive calls.

Key:
INS1 = assay: beta cell apoptosis inhibitors, cytokine rescue, dose response, luminescence, retest (AID 449756); type: functional, cell-based; settings: Rattus norvegicus;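 also: cell death triggered by IL-1 beta plus TNF-alpha plus IFN-gamma mixture; protective hits raise ATP signal compared with cytokine alone wells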
Cysteine protease ATG4B = biological target: T1, Cysteine protease ATG4B (Homo sapiens, UniProt Q9Y4P1); type: functional;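 also: Fluorescence-based dose-response confirmation assay measuring inhibition of ATG4B activity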
T1 sequence (Q9Y4P1 whole entry): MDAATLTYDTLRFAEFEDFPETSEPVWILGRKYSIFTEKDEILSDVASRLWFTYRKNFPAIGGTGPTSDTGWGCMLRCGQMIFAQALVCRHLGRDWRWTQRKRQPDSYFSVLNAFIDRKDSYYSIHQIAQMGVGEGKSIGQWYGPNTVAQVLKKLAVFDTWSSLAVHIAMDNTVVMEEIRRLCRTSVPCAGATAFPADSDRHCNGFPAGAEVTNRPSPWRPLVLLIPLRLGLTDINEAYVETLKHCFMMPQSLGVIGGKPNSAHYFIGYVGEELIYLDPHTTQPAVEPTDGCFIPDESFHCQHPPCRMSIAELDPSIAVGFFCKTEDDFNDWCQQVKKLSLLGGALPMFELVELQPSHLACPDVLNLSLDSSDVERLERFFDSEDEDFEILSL

[1] = biological target: Macrophage-stimulating protein receptor (Homo sapiens, UniProt Q04912); assay: Navigating the Kinome. Panel member name: MST1R; type: functional
[2] = biological target: Vascular endothelial growth factor receptor 2 (Homo sapiens, UniProt P35968); type: functional
[3] = biological target: Serine/threonine-protein kinase PLK1 (Homo sapiens, UniProt P53350); type: functional;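 also: PLK1 measured as one member of a kinome-wide profiling panel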
[4] = biological target: Macrophage colony-stimulating factor 1 receptor (Homo sapiens, UniProt P07333); type: functional;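 also: value comes from the Navigating the Kinome screening panel, CSF1R member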
[5] = biological target: Protein kinase C iota type (Homo sapiens, UniProt P41743); type: functional;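 also: measured within a kinome-wide kinase panel, PRKCI as panel member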
[6] = biological target: cGMP-dependent protein kinase 1 (Homo sapiens, UniProt Q13976); type: functional;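 also: value from a kinome panel screen with PRKG1 as the panel member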
[7] = biological target: Serine/threonine-protein kinase Nek4 (Homo sapiens, UniProt P51957); type: functional
[8] = biological target: Death-associated protein kinase 3 (Homo sapiens, UniProt O43293); type: functional;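 also: measured as one member of a kinome-wide profiling panel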
[9] = biological target: BDNF/NT-3 growth factors receptor (Homo sapiens, UniProt Q16620); type: functional;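 also: NTRK2 measured as one member of a broad kinome-wide kinase profiling panel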
[10] = biological target: Serine/threonine-protein kinase pim-1 (Homo sapiens, UniProt P11309); type: functional
[11] = biological target: Serine/threonine-protein kinase N2 (Homo sapiens, UniProt Q16513); type: functional
[12] = biological target: Serine/threonine-protein kinase PLK4 (Homo sapiens, UniProt O00444); type: functional;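 also: PLK4 measured as one member of a kinome-wide kinase profiling panel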
[13] = biological target: Tyrosine-protein kinase Fer (Homo sapiens, UniProt P16591); type: functional;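 also: FER tested as one member of a kinome panel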
[14] = biological target: MAP kinase-activated protein kinase 2 (Homo sapiens, UniProt P49137); type: functional;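 also: measured as one member of a kinome-wide kinase panel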
[15] = biological target: MAP/microtubule affinity-regulating kinase 3 (Homo sapiens, UniProt P27448); type: functional;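 also: MARK3 affinity measured as one member of a kinome panel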
[16] = biological target: Serine/threonine-protein kinase PAK 4 (Homo sapiens, UniProt O96013); type: functional;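 also: value obtained within a kinome profiling panel in which PAK4 was one of the panel members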
[17] = biological target: Fibroblast growth factor receptor 1 (Homo sapiens, UniProt P11362); type: functional
[18] = biological target: Mast/stem cell growth factor receptor Kit (Homo sapiens, UniProt P10721); type: functional;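 also: KIT entry within a kinase panel assay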
[19] = biological target: Mitogen-activated protein kinase 14 (Homo sapiens, UniProt Q16539); type: functional;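 also: part of a kinome-wide panel, MAPK14 entry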
[20] = biological target: High affinity nerve growth factor receptor (Homo sapiens, UniProt P04629); type: functional;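 also: NTRK1 tested as one member of a kinome-wide profiling panel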
[21] = biological target: Calcium/calmodulin-dependent protein kinase type II subunit delta (Homo sapiens, UniProt Q13557); type: functional
[22] = biological target: Serine/threonine-protein kinase 3 (Homo sapiens, UniProt Q13188); type: functional;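 also: measured as one member of a kinome-wide kinase panel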
[23] = biological target: Serine/threonine-protein kinase PLK3 (Homo sapiens, UniProt Q9H4B4); type: functional
[24] = biological target: Mitogen-activated protein kinase 13 (Homo sapiens, UniProt O15264); type: functional
[25] = biological target: Megakaryocyte-associated tyrosine-protein kinase (Homo sapiens, UniProt P42679); type: functional;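 also: affinity measured as one member of a kinase panel (Navigating the Kinome) against MATK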
[26] = biological target: Leucine-rich repeat serine/threonine-protein kinase 2 (Homo sapiens, UniProt Q5S007); type: functional;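 also: value from a broad kinome-wide panel profiling study in which LRRK2 was one of the kinases tested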
Cytochrome P450 2D6 = Cytochrome P450 2D6 (Homo sapiens, UniProt P10635);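 also: CYP2D6 member of a cytochrome P450 panel assay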
[27] = HeLa 2N DNA content increase, dose response, cell-based, IC50 (AID 1117349); type: functional
Staphylococcus aureus = assay: Inhibitors of Bacterial Quorum Sensing Structure Activity Relationship (SAR) Analysis: Dose Response Assay. [Related pubchem assays: 700, 527 ]; type: functional, organism-based
Leucine aminopeptidase = biological target: T2, Leucine aminopeptidase (Plasmodium falciparum 3D7, UniProt Q8IL11); assay: P. falciparum M17LAP inhibitors, primary screen, biochemical, fluorogenic H-Leu-NHMec substrate, 1536-well (AID 1619); type: functional
T2 sequence (Q8IL11 whole entry): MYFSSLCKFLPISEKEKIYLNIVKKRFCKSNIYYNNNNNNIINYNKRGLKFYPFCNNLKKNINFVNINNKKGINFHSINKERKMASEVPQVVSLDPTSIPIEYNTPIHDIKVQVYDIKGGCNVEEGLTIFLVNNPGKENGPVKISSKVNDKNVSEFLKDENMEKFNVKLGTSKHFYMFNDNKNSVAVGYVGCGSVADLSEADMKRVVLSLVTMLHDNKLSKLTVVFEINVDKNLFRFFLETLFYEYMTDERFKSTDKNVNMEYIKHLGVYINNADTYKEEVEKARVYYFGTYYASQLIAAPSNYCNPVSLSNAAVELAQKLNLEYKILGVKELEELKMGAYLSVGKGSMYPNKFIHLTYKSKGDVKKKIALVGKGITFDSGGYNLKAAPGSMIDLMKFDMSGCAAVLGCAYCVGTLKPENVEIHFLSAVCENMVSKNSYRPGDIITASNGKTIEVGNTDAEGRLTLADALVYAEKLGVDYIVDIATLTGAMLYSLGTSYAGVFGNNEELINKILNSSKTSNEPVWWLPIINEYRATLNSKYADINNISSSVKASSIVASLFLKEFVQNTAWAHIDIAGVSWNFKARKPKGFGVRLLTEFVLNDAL

[28] = cytotoxicity toward HT-29 cells – cell-based, CellTiter-Glo luminescence, IC50, dose response (AID 1117330); type: functional

Megakaryocyte-associated tyrosine-protein kinase, sequence (P42679 whole entry): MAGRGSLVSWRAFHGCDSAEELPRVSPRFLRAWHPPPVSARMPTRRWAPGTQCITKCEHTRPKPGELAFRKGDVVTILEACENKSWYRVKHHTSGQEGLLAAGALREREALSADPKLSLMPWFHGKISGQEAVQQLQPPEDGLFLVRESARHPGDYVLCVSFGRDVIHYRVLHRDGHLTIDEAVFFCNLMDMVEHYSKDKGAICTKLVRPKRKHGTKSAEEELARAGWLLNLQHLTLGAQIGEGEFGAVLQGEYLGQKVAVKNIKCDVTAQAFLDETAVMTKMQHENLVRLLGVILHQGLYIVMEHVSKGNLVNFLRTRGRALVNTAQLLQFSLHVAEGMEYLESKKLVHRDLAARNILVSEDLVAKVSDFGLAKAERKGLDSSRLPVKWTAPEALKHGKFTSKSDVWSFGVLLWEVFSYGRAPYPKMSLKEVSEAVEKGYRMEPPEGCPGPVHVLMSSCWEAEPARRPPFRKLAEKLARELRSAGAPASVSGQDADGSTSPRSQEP
Serine/threonine-protein kinase pim-1, sequence (P11309 whole entry): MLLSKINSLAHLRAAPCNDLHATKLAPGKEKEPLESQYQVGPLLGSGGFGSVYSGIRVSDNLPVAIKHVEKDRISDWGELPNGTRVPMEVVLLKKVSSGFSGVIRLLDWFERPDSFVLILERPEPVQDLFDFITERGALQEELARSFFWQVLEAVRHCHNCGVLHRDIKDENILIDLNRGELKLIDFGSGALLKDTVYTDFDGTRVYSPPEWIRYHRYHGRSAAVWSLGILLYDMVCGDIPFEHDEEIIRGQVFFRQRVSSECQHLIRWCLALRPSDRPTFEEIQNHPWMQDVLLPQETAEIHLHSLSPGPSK
cGMP-dependent protein kinase 1, sequence (Q13976 whole entry): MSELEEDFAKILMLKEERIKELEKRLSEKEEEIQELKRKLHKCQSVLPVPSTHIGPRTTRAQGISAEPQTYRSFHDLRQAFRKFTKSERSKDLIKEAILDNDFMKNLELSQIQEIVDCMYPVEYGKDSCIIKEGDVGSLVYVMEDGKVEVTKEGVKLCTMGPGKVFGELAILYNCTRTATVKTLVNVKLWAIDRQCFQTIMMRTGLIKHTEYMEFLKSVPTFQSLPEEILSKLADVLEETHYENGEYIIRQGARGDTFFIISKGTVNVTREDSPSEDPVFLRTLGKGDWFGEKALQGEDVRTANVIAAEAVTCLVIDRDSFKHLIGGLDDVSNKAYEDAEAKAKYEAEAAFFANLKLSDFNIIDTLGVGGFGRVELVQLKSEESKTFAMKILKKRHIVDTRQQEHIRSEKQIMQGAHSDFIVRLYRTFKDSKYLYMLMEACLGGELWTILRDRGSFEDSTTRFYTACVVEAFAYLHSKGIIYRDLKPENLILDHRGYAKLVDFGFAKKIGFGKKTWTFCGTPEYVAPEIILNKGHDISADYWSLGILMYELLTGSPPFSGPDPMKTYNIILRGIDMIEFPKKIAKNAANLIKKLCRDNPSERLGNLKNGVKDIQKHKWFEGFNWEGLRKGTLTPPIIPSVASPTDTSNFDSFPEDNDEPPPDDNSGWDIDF
Tyrosine-protein kinase Fer, sequence (P16591 whole entry): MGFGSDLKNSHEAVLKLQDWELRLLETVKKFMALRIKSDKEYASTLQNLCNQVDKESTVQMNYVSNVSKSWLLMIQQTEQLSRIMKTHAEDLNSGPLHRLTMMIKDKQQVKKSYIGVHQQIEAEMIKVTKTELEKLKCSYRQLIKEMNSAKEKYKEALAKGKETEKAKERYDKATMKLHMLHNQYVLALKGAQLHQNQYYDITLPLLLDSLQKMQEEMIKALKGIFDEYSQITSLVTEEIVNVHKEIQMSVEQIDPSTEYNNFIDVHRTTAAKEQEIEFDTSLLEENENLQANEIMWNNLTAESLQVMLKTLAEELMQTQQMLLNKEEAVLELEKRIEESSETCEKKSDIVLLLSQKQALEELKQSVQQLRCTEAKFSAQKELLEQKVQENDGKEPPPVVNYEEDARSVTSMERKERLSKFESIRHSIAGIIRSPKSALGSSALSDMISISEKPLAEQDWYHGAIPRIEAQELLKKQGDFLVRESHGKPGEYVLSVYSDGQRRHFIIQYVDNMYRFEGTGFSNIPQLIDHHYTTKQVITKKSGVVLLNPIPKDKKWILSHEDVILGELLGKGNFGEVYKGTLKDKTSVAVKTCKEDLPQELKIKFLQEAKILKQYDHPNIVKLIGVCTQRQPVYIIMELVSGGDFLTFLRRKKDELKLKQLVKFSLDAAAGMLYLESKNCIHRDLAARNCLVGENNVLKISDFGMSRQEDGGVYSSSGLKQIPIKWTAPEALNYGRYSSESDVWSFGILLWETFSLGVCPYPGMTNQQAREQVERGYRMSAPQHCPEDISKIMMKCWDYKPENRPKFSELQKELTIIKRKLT
High affinity nerve growth factor receptor, sequence (P04629 whole entry): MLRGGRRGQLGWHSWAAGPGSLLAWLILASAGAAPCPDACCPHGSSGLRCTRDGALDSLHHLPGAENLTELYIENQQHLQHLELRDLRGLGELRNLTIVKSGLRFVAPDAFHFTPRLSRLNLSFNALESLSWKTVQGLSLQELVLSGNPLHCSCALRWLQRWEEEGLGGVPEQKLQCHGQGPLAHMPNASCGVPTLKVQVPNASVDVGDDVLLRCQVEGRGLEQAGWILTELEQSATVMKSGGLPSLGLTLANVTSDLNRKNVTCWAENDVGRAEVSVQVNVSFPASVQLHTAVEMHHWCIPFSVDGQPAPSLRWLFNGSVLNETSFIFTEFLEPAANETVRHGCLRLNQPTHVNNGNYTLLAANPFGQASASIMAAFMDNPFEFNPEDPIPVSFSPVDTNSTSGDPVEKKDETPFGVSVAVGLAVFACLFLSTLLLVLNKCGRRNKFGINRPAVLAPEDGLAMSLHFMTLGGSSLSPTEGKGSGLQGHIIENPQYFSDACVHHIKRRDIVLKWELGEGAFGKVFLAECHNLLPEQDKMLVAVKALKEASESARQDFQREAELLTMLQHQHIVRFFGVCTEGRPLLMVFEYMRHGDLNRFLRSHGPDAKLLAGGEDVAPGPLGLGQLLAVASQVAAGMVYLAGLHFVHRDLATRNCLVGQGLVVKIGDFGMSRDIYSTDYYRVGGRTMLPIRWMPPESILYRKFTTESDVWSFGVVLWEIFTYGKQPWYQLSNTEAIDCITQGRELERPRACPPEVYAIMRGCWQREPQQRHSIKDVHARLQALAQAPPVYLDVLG
Mitogen-activated protein kinase 14, sequence (Q16539 whole entry): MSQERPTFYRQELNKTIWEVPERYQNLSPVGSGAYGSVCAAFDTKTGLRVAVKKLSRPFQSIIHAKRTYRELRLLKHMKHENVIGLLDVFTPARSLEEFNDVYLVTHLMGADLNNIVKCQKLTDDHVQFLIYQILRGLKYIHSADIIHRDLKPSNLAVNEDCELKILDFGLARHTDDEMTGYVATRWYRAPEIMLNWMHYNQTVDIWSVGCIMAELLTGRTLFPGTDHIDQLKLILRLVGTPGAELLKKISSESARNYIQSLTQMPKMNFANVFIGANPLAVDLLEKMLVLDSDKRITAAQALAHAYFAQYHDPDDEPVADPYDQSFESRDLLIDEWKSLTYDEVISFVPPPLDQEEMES
Mast/stem cell growth factor receptor Kit, sequence (P10721 whole entry): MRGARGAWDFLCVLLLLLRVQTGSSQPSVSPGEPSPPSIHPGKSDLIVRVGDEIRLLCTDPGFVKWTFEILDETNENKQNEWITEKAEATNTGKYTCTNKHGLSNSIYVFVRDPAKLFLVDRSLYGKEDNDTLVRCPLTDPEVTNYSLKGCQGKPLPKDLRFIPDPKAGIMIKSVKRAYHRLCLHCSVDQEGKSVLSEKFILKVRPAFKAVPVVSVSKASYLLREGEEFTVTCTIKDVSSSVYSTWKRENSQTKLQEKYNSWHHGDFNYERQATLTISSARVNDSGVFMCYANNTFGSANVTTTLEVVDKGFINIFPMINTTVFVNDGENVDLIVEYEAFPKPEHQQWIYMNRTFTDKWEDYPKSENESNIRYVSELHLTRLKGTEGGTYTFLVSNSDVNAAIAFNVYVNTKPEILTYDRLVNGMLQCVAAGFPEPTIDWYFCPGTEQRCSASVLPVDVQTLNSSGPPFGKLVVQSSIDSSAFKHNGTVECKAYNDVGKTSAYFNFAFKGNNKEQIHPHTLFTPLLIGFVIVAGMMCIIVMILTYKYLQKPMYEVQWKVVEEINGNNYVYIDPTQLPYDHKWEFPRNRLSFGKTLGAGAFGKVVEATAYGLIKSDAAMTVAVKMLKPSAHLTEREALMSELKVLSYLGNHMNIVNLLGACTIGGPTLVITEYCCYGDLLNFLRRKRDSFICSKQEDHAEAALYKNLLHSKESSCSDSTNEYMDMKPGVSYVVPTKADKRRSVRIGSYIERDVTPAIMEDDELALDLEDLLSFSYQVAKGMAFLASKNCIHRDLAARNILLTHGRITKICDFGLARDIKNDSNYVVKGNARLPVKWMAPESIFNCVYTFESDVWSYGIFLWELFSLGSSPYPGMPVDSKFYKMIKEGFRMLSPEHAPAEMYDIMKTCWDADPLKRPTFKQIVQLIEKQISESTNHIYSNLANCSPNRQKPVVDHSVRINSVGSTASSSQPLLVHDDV
Calcium/calmodulin-dependent protein kinase type II subunit delta, sequence (Q13557 whole entry): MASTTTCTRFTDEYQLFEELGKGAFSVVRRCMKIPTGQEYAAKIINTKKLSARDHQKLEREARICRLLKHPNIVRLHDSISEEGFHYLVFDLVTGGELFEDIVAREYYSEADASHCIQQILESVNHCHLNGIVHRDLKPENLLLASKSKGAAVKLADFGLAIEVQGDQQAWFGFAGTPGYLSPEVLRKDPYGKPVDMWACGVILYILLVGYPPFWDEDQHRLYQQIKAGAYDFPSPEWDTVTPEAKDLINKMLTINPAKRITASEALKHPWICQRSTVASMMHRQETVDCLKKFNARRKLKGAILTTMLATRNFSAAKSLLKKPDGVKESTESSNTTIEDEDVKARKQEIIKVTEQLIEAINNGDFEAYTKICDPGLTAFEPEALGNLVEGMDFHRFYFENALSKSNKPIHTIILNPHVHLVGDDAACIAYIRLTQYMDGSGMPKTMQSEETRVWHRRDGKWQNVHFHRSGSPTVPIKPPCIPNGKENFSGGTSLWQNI

Compound: O=C1C=C(N2CCOCC2)c2ccccc2C1=O
AC50 (INS1): 4.72 µM (active) | IC50 (Cysteine protease ATG4B): 7.07 µM (active)

Ki [1]: > 3.98 µM (inactive) | Ki [2]: > 2.51 µM (inactive) | Ki [3]: > 7.94 µM (inactive) | Ki [4]: > 2.51 µM (inactive) | Ki [5]: > 5.01 µM (inactive) | Ki [6]: > 2 µM (inactive) | Ki [7]: > 6.31 µM (inactive) | Ki [9]: > 3.98 µM (inactive) | Ki [10]: > 5.01 µM (inactive) | Ki [11]: > 6.31 µM (inactive) | Ki [12]: > 3.98 µM (inactive) | Ki [13]: > 1.58 µM (inactive) | Ki [14]: > 7.94 µM (inactive) | Ki [15]: > 6.31 µM (inactive) | Ki [16]: > 5.01 µM (inactive) | Ki [17]: > 3.98 µM (inactive) | Ki [18]: > 1.26 µM (inactive) | Ki [19]: > 3.98 µM (inactive) | Ki [20]: > 2.51 µM (inactive) | Ki [21]: > 6.31 µM (inactive) | Ki [22]: > 7.94 µM (inactive) | Ki [23]: > 7.94 µM (inactive) | Ki [24]: > 7.94 µM (inactive) | Ki [25]: > 2 µM (inactive) | Ki [26]: > 2.51 µM (inactive)
Compound: N#Cc1ccc2[nH]c(O)c(-c3ccc(CN4CCOCC4)cn3)c2c1 [AZD-1080]
Ki [8]: > 3.98 µM (inactive)

Compound: CCc1oc2ccccc2c1C(=O)c1cc(Br)c(O)c(Br)c1 [BENZBROMARONE]
AC50 (Cytochrome P450 2D6): inactive | IC50 [27]: > 10 µM (inactive) | IC50 (Staphylococcus aureus): 0.131 µM (active) | IC50 (Leucine aminopeptidase): 81.9 µM (active) | IC50 [28]: 1.14 µM (active)
